Entries after “also recorded” stand apart in the source; their conditions may differ.
Experiments:
[1] = system: lymphoid cells from type II collagen immunized DR1 transgenic mice; format: cell-based, mouse
[2] = biological target: CD4+ CD44+ cells from CFA only immunized DR1 transgenic mice (T cell receptors on cells)
[3] = biological target: HA259-274 specific CD4+ T cells from DR1 transgenic mice immunized with H5N1-rHA1 protein/CFA (T cel)
[4] = biological target: HA259-274 specific CD4+ T cells from DR1 transgenic mice immunized with H5N1-rHA1 protein/CFA (T cel); remark: listed apart in the source
[5] = system: lymphoid cells from rHA1 immunized DR1 transgenic mice; format: cell-based, mouse
[6] = system: lymphoid cells from H5N1-rHA1 immunized DR1 transgenic mice; format: cell-based, mouse
[7] = system: lymphoid cells from H5N1-rHA1 immunized DR1 transgenic mice; format: cell-based, mouse; remark: listed apart in the source
[8] = system: lymphoid cells from H5N1-rHA1 immunized DR1 transgenic mice; format: cell-based, mouse; remark: listed apart in the source

Row | Substance | proliferative response ([3H]thymidine incorporation) [5] | proliferation response ([3H]thymidine incorporation) [6] | IFN-γ production in culture supernatant [7] | further results
1 | AGFKGEQGPKGEPGP [CII280-294] | – | – | – | proliferative response ([3H]thymidine incorporation) [1]: Strong dose dependent responses
2 | HA259-274/DR1 tetramers (from UniProt P01903 26-216) (peptide-MHC) | – | – | – | tetramer positive cells [2]: 0.01%; tetramer positive population (% of the CD4+ CD44+ cells) [3]: 0.1; fold increased staining against control CLIP/DR1 tetramers [4]: 30 fold; tetramer positive population [4]: 3%
3 | INSSLPYQNIHPVTIGECPKY [HA298-317] | significantly lower; also recorded: no response | – | – | –
4 | KMRMATPLLMQALPM [CLIP89-105] | – | not | not | –
5 | PKYVKQNTLKLAT [HA306-318] | Strong dose dependent responses | – | – | –
6 | SNGNFIAPEYAYKIVK [HA259-274] | – | Strong dose dependent proliferation responses | positive cytokine production | IL-2 production in culture supernatant [8]: positive cytokine production

Reference: patent US20120076811A1 (priority 2009, published 2012)
